# According to ChEMBL document CHEMBL1128841, “Purification of pig and rat liver squalene epoxidase by affinity chromatography” (Bioorg Med Chem Lett, 1995):
# Target: Squalene monooxygenase (Rattus norvegicus, UniProt P52020)
# Assay: The compound was tested for its inhibitory activity against rat Squalene epoxidase
# Squalene monooxygenase, sequence (P52020 whole entry): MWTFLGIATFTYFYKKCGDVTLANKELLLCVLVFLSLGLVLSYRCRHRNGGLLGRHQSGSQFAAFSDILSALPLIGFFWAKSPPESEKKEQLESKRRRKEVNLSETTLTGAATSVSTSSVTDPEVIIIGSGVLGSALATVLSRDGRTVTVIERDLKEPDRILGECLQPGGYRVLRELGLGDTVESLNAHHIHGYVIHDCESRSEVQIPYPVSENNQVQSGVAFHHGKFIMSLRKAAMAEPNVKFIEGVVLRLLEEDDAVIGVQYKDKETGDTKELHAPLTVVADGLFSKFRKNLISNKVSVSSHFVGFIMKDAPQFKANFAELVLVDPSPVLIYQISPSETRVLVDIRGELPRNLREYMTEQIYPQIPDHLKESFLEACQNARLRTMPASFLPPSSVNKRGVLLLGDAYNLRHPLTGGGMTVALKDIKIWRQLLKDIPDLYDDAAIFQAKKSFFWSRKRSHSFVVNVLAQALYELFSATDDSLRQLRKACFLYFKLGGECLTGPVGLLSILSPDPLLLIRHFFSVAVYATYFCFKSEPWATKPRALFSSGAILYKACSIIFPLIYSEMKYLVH
structure (smiles),measurement,value
CNCCC/C(C)=C/CC/C(C)=C/CC/C=C(\C)CC/C=C(\C)CCCNCCCCCCN,IC50,1000 nM
